Assay results reported in PubChem BioAssay (NCI).
Where “and” joins values, the source holds several entries; their conditions need not be identical. Identical values can stand only once.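 Step 1: Grow cells in 96-well plates. Step 2: Expose to compound for 48 hours at 5 concentrations. Step 3: Interpolate endpoints linearly; if unreached, use highest concentration. GI50 = concentration required for 50% inhibition of growth. TGI: total growth inhibition.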

How the values were obtained:
Assay in all cases: NCI-60 cell line screen, 48 h
COLO 205 colon = test system: COLO 205 colon
K-562 leukemia = test system: K-562 leukemia
HL-60(TB) leukemia = test system: HL-60(TB) leukemia
SF-268 CNS = test system: SF-268 CNS
NCI-H522 lung = test system: NCI-H522 lung
EKVX NSCLC = test system: EKVX NSCLC
SF-539 CNS = test system: SF-539 CNS
UACC-257 melanoma = test system: UACC-257 melanoma
HT29 colon = test system: HT29 colon
U251 CNS = test system: U251 CNS
MCF7 breast = test system: MCF7 breast
SNB-19 CNS = test system: SNB-19 CNS
DU-145 prostate = test system: DU-145 prostate

| Structure (SMILES) | TGI (COLO 205 colon) | TGI (K-562 leukemia) [µM] | TGI (HL-60(TB) leukemia) | TGI (SF-268 CNS) | TGI (NCI-H522 lung) | TGI (EKVX NSCLC) | TGI (SF-539 CNS) | TGI (UACC-257 melanoma) | TGI (HT29 colon) | TGI (U251 CNS) | TGI (MCF7 breast) | TGI (SNB-19 CNS) [µM] | TGI (DU-145 prostate) [µM] | GI50 (EKVX NSCLC) [µM] | GI50 (SF-539 CNS) [µM] | GI50 (NCI-H522 lung) | GI50 (SF-268 CNS) | GI50 (UACC-257 melanoma) | GI50 (HL-60(TB) leukemia) [µM] |
| --- | --- | --- | --- | --- | --- | --- | --- | --- | --- | --- | --- | --- | --- | --- | --- | --- | --- | --- | --- |
| NC(=O)CCC(N=C(N)c1csc(C2OC(CO)C(O)C2O)n1)C(=O)O (stereo not drawn) | > 100 µM | > 100 | > 100 µM | > 100 µM | > 100 µM | > 100 µM | > 100 µM | > 100 µM | > 100 µM | > 100 µM | – | – | – | – | – | – | – | – | – |
| C/C=C/C1=CC(=O)C(O)C1O (stereo not drawn) | 51.8 µM | 179 | 57.5 µM | 91.2 µM | 15.5 µM | 148 µM | 55.9 µM | 97.4 µM | 102 µM | 129 µM | 122 µM | 124 | – | – | – | – | – | – | – |
| CC(=O)OC/C=C\Cn1nc(Br)c(=O)[nH]c1=O | 29.6 µM | 26.5 | 17.6 µM | 31.5 µM | 16.7 µM | 34.5 µM | 24.7 µM | 31.8 µM | – | 22.6 µM | 28.5 µM | 37.7 | 31.9 | – | – | – | – | – | – |
| CC(=O)NC(CCC(=O)C=[N+]=N)C(=O)O (stereo not drawn) | > 100 µM | > 100 | > 100 µM | > 100 µM | > 100 µM | > 100 µM | > 100 µM | > 100 µM | > 100 µM | > 100 µM | > 100 µM | > 100 | > 100 | – | – | – | – | – | – |
| CNC(=O)SCC(N)C(=O)O (stereo not drawn) | > 100 µM | > 100 | > 100 µM | > 100 µM | > 100 µM | > 100 µM | > 100 µM | > 100 µM | > 100 µM | > 100 µM | > 100 µM | > 100 | – | – | – | – | – | – | – |
| CC(=O)O[C@H]1/C(=C/c2ccncc2)C[C@H]2[C@@H]3CC=C4C[C@@H](N5CCCC5)CC[C@]4(C)[C@H]3CC[C@]12C | 25.5 µM | 12.5 | 26.1 µM | 30.2 µM | 34.9 µM | 29 µM | 35 µM | 6.42 µM | 14.1 µM | 24.8 µM | 25.8 µM | 31.9 | 28 | – | – | – | – | – | – |
| COC(=O)c1c(O)ccc2c1c1c(n2Cc2ccc(Cl)cc2Cl)C(=O)c2ccccc2C1=O | 24.3 µM | 22.5 | 34.2 µM | 24.6 µM | 22 µM | 24.5 µM | 27.7 µM | 30.1 µM | 32.1 µM | 24.6 µM | 15.9 µM | 30.6 | 31.2 | – | – | – | – | – | – |
| COc1ccc(/C(O)=C/c2nc3cccnc3nc2/C=C(\O)c2ccc(OC)cc2)cc1 | > 100 µM | > 100 | > 100 µM | 28.6 µM | – | 82.1 µM | 25.4 µM | > 100 µM | 79.3 µM | 37.7 µM | 50.1 µM | 57.5 | > 100 | – | – | – | – | – | – |
| O=C(N/N=C/c1cc(Cl)cc(Cl)c1[O-])c1ccccc1O.O=C(N/N=C/c1cc(Cl)cc(Cl)c1[O-])c1ccccc1O.[Zn+2] | – | 33.4 | 0.715 µM | 17.7 µM | 0.764 µM | 9.88 µM | 5.75 µM | 11.8 µM | 13.7 µM | 5.93 µM | – | 15 | – | 0.68 | 0.852 | – | – | – | – |
| C[C@]12CC/C(=N\O)C=C1CC[C@@H]1[C@@H]2CC[C@]2(C)C(=N/O)/C(=C/c3ccc([N+](=O)[O-])cc3)C[C@@H]12 | 53.3 µM | 19.5 | 8.91 µM | > 100 µM | 9.64 µM | – | > 100 µM | 33.9 µM | 21.9 µM | – | > 100 µM | > 100 | 28.8 | – | – | – | – | – | – |
| CCOC(=O)c1c(Cl)nc2ccccc2c1N=[N+]=[N-] | 36.1 µM | > 100 | > 100 µM | 30.5 µM | 31.4 µM | > 100 µM | 37.7 µM | 53.4 µM | 34.2 µM | 62.4 µM | – | > 100 | – | – | – | – | – | – | – |
| CCC(=O)c1ccc2[nH]c3c(C)c4c(=O)cc(C)[nH]c4c(C)c3c2c1 | > 100 µM | – | > 100 µM | > 100 µM | > 100 µM | > 100 µM | > 100 µM | > 100 µM | > 100 µM | > 100 µM | > 100 µM | > 100 | > 100 | – | – | – | – | – | – |
| Cc1oc2c(Cl)cc(O)c(Cl)c2c2cccc1-2 | > 100 µM | 47.4 | > 100 µM | > 100 µM | 83.3 µM | 54.6 µM | 71.4 µM | > 100 µM | > 100 µM | 64.9 µM | > 100 µM | > 100 | 27.5 | – | – | – | – | – | – |
| COc1cc(OC)c(/C=C\c2cc(/C=C/c3c(OC)cc(OC)cc3OC)c3ccccc3[n+]2C)c(OC)c1 | 6.1 µM | – | 5.62 µM | 10.5 µM | 7.58 µM | 11.4 µM | 5.93 µM | 12.4 µM | 5.93 µM | > 61.4 µM | > 39.8 µM | 40 | 20.9 | – | – | – | – | – | – |
| CC(=O)NC(c1nc2cc(C)c(C)cc2[nH]1)c1nc2cc(C)c(C)cc2[nH]1 | 43.4 µM | > 100 | > 100 µM | > 100 µM | 18 µM | 84.8 µM | 30.5 µM | 71.1 µM | 78.1 µM | 57.9 µM | > 100 µM | > 100 | 57.7 | – | – | – | – | – | – |
| Cc1ccc(-c2cc(C(F)(F)F)nn2-c2ccc(S(N)(=O)=O)cc2)cc1 | 50.8 µM | > 50.6 | 42.7 µM | > 55.8 µM | 77.6 µM | 54.4 µM | > 59.4 µM | > 58.3 µM | > 55.5 µM | > 54.5 µM | > 58.4 µM | > 56.7 | > 57.7 | – | – | 19.9 µM | – | – | – |
| C1=C(c2ccccc2)Nc2nnnn2C1c1ccccc1 (stereo not drawn) | > 100 µM | > 100 | 64.4 µM | > 100 µM | 69.8 µM | – | 81 µM | > 100 µM | 41.5 µM | 52 µM | 84.6 µM | > 100 | 72.5 | – | – | – | – | – | – |
| S=C1CC(c2ccccc2)Sc2ccccc2N1 (stereo not drawn) | > 100 µM | > 100 | > 100 µM | > 100 µM | > 100 µM | > 100 µM | – | > 100 µM | > 100 µM | > 100 µM | > 100 µM | > 100 | > 100 | – | – | – | – | – | – |
| CC1CCC2(C(=O)O)CCC3(C)C(=CCC4C5(C)CCC(O)C(C)(C)C5CCC43C)C2C1C (stereo not drawn) | 26.3 µM and 28.3 µM | 15.6 | 19 µM and 6.49 µM | 17.7 µM and 24.6 µM | 17.8 µM and 28.9 µM | 23.2 µM and 28.6 µM | 22.5 µM and 35.6 µM | 13.7 µM and 32.6 µM | 22.9 µM and 37.7 µM | 19.8 µM and > 100 µM | 25.6 µM and 43.7 µM | 17.9 | 21.6 | – | – | 6.98 µM and 14.4 µM | 1.29 µM and 10.7 µM | 4.8 µM and 12.1 µM | – |
| COc1cccc(/C=N/[N-]C(N)=O)c1[O-].[Ni+2].[OH3+].c1ccc(-c2ccccn2)nc1 | > 100 µM | > 100 | > 100 µM | > 100 µM | > 100 µM | > 100 µM | > 100 µM | > 100 µM | > 100 µM | > 100 µM | – | – | – | – | – | – | – | – | 66.9 |
| CC1CC[C@@]2(OC1)OC1CC3C4CCC5C[C@@H](OC6OC(CO)C(OC7OC(CO)C(O)C(OC8OC(CO)C(O)C(OC9OC(CO)C(O)C(O)C9O)C8O)C7OC7OC(CO)C(O)C(O)C7O)C(O)C6O)[C@H](O)C[C@]5(C)C4CC[C@]3(C)C1[C@@H]2C (stereo partly drawn) | > 80.5 µM | > 80.5 | > 80.5 µM | > 80.5 µM | – | > 80.5 µM | > 80.5 µM | > 80.5 µM | > 80.5 µM | > 80.5 µM | > 80.5 µM | > 80.5 | > 80.5 | – | – | – | – | – | – |
